Data: paper PMC10931625, “EsigPBP3 Was the Important Pheromone-Binding Protein to Recognize Male Pheromones and Key Eucalyptus Volatiles” (International Journal of Molecular Sciences, 2024)

Molecular target: recombinant EsigPBP3
Test: fluorescence competitive binding assay (FCBA) with 1-NPN probe
Set-up: species or system Endoclita signifer
Conditions: for IC50: displacement of 1-NPN, 20 mM Tris-HCl pH 7.4, ligands 2-24 µM; for IC50 / Ki: 2 µM EsigPBP3 and 2 µM 1-NPN; for Ki: from IC50 by Ki = [IC50]/(1 + [1-NPN]/K1-NPN)
Procedure: Fluorescence competition assays were conducted using 1-NPN ([…]) as a selective fluorescence probe to measure the affinity of ligands for binding to the recombinant EsigPBP3 [49]. […] The emission wavelength range was set from 380 nm to 520 nm. After the fluorescence intensity stabilized, scans were performed and the emission was recorded (both excitation and emission slit widths were set to 10 nm). A final concentration of 2 μM EsigPBP3 solution was prepared in 20 mM Tris-HCl buffer (pH 7.4), and the ligands were dissolved in chromatographically pure methanol as 1 mM stock solutions. […] The compound was added proportionally to a mixture with a final concentration of 2 µM EsigPBP3 protein and 2 µM 1-NPN. The ability of ligands to bind to the EsigPBP3 protein was monitored by the decrease in fluorescence intensity.

Compound	IC50 [µM]	Ki (pH 7.4) [µM]	Kd (binding curve and Scatchard plot, 2 µM EsigPBP3, 1-NPN 2-24 µM, pH 7.4, read-out: dissociation constant (Kd) of EsigPBP3 for the reporter ligand 1-NPN) [µM]
CC12CCC(CC1)C(C)(C)O2 [eucalyptol]	> 24	> 16.1	–
C=C1C2CCC(C2)C1(C)C (stereo not shown) [camphene]	9.85	6.61	–
CC(C)(O)c1ccccc1 [2-phenyl-2-propanol]	> 24	> 16.1	–
CC1=CCC2CC1C2(C)C (stereo not drawn) [(−)-α-pinene]	7.85	5.27	–
CCc1ccccc1CC [benzene, 1,2-diethyl-]	7.19	4.83	–
CCc1ccc(C(C)=O)cc1 [4-ethylacetophenone]	8.26	5.55	–
c1ccc(Nc2cccc3ccccc23)cc1 [1-NPN, reference compound]	–	–	3.36
CC1=CC[C@H](C(C)C)C=C1 [α-phellandrene]	5.32	3.57	–
Cc1cc(C)cc(C)c1 [1,3,5-trimethyl-benzen]	> 24	> 16.1	–
C=C1CCC2CC1C2(C)C (stereo not drawn) [(−)-β-pinene]	4.77	3.2	–
